pIC50, pKi: −log10 of the molar value.
molecular target: Benzodiazepine Receptors; experiment: Benzodiazepine receptor binding affinity: displacement of 3H-diazepam from rat synaptosomal membranes; conditions: 3H-diazepam, 4° C., 15 min, triplicate
Method: 2'-Iododiazepam, Diazepam and Fludiazepam were screened as for benzodiazepine binding affinity according to the method reported by Nakatsuka (Life Sciences 36 (2) 113-119, 1985). An aliquot of synaptosomal membrane preparations was incubated at 4° C. for 15 min. with each of the unlabeled competing drugs (2'-Iodoiazepam, Diazepam and Fludiazepam) in different concentration and 3H-diazepam. The incubation was terminated by adding ice-cold Tris-HCl buffer followed by a rapid filtration through a Whatman GF/B filter. The bound 3H-diazepam retained on the filter was extracted with ACS-II (Amersham) and counted. All incubations were conducted in triplicate. Nonspecific binding was determined in tubes containing diazepam. Specific binding was calculated by subtracting the nonspecific binding from the total binding. IC50 values, the concentrations of the tested compounds that cause 50% inhibition of the specific 3H-diazepam were determined from the displacement curves obtained.

Row | Compound | pKi
1 | CN1C(=O)CN=C(c2ccccc2I)c2cc(Cl)ccc21 [2'-Iododiazepam, 7-chloro-1-methyl-5-(2-iodophenyl)-3H-1,4-benzodiazepin-2-one] | 9.68
2 | CN1C(=O)CN=C(c2ccccc2)c2cc(Cl)ccc21 [Diazepam] | 8.11
3 | CN1C(=O)CN=C(c2ccccc2F)c2cc(Cl)ccc21 [Fludiazepam] | 9.00

same assay, conditions: inhibition of specific 3H-diazepam binding, 4° C., 15 min, triplicate

Row | Compound | pIC50
4 | CN1C(=O)CN=C(c2ccccc2I)c2cc(Cl)ccc21 [2'-Iododiazepam, 7-chloro-1-methyl-5-(2-iodophenyl)-3H-1,4-benzodiazepin-2-one] | 9.60
5 | CN1C(=O)CN=C(c2ccccc2)c2cc(Cl)ccc21 [Diazepam] | 8.05
6 | CN1C(=O)CN=C(c2ccccc2F)c2cc(Cl)ccc21 [Fludiazepam] | 8.92

same assay, conditions: relative to Diazepam = 100, 3H-diazepam

Row | Compound | Relative Potency
7 | CN1C(=O)CN=C(c2ccccc2I)c2cc(Cl)ccc21 [2'-Iododiazepam, 7-chloro-1-methyl-5-(2-iodophenyl)-3H-1,4-benzodiazepin-2-one] | 3600
8 | CN1C(=O)CN=C(c2ccccc2)c2cc(Cl)ccc21 [Diazepam] | 100
9 | CN1C(=O)CN=C(c2ccccc2F)c2cc(Cl)ccc21 [Fludiazepam] | 770

Source: patent US5216147A, “Radioactive benzodiazepine derivatives” (Sumitomo Chemical Company, Limited, priority 1987, dated 1993)
